The results in this text go back to patent publication US20240398843A1, “GLYCYRRHIZIN-BRANCHED POLYETHYLENE GLYCOL CONJUGATE FOR TREATING CANCER” (IUCF-HYU (INDUSTRY-UNIVERSITY COOPERATION FOUNDATION …, priority 2021, published 2024).

The test system of data set [1] is HepG2 cells. The data set can be described thus: Cell cycle arrest assay (PI, FACS). In kind it is cell-based. As to conditions: 24 hours. On the procedure:
HepG2 cells were seeded in a 6-well plate at 4×10^5 cells/well and cultured (3 wells for each treated group). The cells were classified into a control (con; untreated group), GL-treated groups (250 and 500 μg/mL), bPEG-GL-treated groups (GL equi 250 and 500 μg/mL), and a bPEG (GL equi 500 μg/mL)-treated group, treated with corresponding materials, and cultured for 24 hours. After the cells were recovered and counted, 1×10^6 cells were obtained for each experimental group. The cells were washed with PBS and fixed with 70% ethanol (cell membrane disruption). The cells were treated with 50 μL of ribonuclease A (100 μg/mL) and 200 μL of propidium iodide (PI; 50 μg/mL). The cells were washed and suspended in 500 μL of PBS, and then FACS was performed.

Data set [2] in a line: Dynamic light scattering (DLS) particle size, incl. shielding effect check in 10% FBS DW. The class given is physicochemical. The following applies: for DLS size, first listed population / DLS size, second listed population / proportion of first listed population / proportion of second listed population: 10% FBS DW. From the text: When bPEG was conjugated, a stabilized nano size of approximately 300 nm was observed (FIG. 6).

Data set [3] concerns HepG2 cells. The data set can be described thus: Apoptosis assay (annexin V/PI, FACS). The class given is cell-based. As to conditions: 24 hours. On the procedure: HepG2 cells were seeded in a 60 mm well plate at 2×10^5 cells/well and cultured (3 wells for each treatment group). The cells were classified as follows, treated with corresponding materials, and cultured for 24 hours: Control (con; untreated group), GL-treated groups (250, 500, and 1,000 μg/mL), bPEG-GL-treated groups (900, 1,800, and 3,600 μg/mL; GL equivalent concentrations of 250, 500, and 1,000 μg/mL), and bPEG-treated groups (1,300 and 2,600 μg/mL; bPEG-GL equivalent concentrations of 1,800 and 3,600 μg/mL).
After the culture, the medium was aspirated to remove the treated material, and the cells were washed twice with a cell-staining buffer. After the cells were recovered and counted, 5×10^5 cells were obtained for each experimental group. The cell culture solution was centrifuged to remove the supernatant, and then the cells were suspended in 100 μL of annexin V-binding buffer. The cell suspension was transferred to an FACS tube, and 5 μL of annexin V and 10 μL of PI solution were added. Subsequently, the FACS tube was left in a dark room at room temperature for 15 minutes. 400 μL of PBS was added to each FACS tube and analyzed by FACS in appropriate settings.

Data set [4] in a line: In vivo pharmacokinetics (plasma, HPLC). As to conditions: intravenous, mouse, tail vein, 5 mg/kg GL. On the procedure: 5 mg/kg of GL or 18 mg/kg of bPEG-GL (a GL equivalent amount of the GL-administered group) was injected into the tail vein of a mouse. The mouse was sacrificed at a designated time point after injection and blood was collected through cardiac puncture. The blood collection times were as follows: 1, 3, 5, 10, 30, 60, 120, 150, 360, 720, 1080, and 1440 min (n=4 at each time). The collected blood was centrifuged at 3000 rpm and 4° C. for 20 minutes. Only the plasma, which is the supernatant, was recovered, and 50 μL of the plasma and 100 μL of methyl alcohol (HPLC grade) were mixed and vortexed for 10 minutes. Afterward, the resulting product was centrifuged at 10000 g for 10 minutes. 100 μL of the supernatant was mixed with 900 μL of a mobile phase, and the resulting mixture was filtered using a 0.45 μm syringe filter.
The mobile phase consisted of methanol, acetonitrile, water, and acetic acid in a ratio of 55:23.7:19.2:0.68. The standard curve required for HPLC analysis was prepared as follows: each of 1 mg of GL and 1.8 mg of bPEG-GL was dissolved in 1 mL of the mouse serum. […] HPLC was performed on the blood samples and various concentrations of the GL/serum solutions using a C8 reverse column: flow rate: 1 mL/min; column temperature: 35° C.; UV absorbance: 251 nm; and sample injection amount: 20 μL.

The next data set has as its system red blood cells. The data set can be described thus: In vitro blood hemolysis. As to conditions: 0.2 to 1 mg/mL, 37° C., 1 hour. On the procedure: 1 to 2 mL of blood was put into a 2 mL tube, filled with PBS, and centrifuged at 3,000 rpm for 2 minutes. The supernatant was removed, the vial was filled again with PBS, and centrifuged, and this process was repeated 2 to 3 times. 20 μL of a red blood pellet was dispensed into a 1.5 mL tube. DW, for example, 80% DW/PBS, 60% DW/PBS, 40% DW/PBS, 20% DW/PBS, or PBS was added to a control without separate material treatment, and the volumes was adjusted to 1.5 mL. In the experimental group, 1 mL of a bPEG-GL (3.6 mg/mL, 2.88 mg/mL, 2.16 mg/mL, 1.44 mg/mL, 0.72 mg/mL; GL equivalent concentration) solution was added to each tube.
The tubes were left in a 37° C. water bath for 1 hour and then centrifuged at 800 rpm for 5 minutes.

Data set [5] in a line: In vivo distribution (organ fluorescence, FOBI). As to conditions: FITC-labelled, tail vein, C57BL mouse. As to the method:
Each of GL-FITC and bPEG-GL-FITC was dissolved in 1.5 mL of PBS at a concentration of 125 μg/mL based on GL. 100 μL each of the GL-FITC and bPEG-GL-FITC solutions was injected into the tail vein of a C57BL mouse. When a preset time (10 min, 30 min, 3 hr, 6 hr, and 24 hr) passed, the mice were sacrificed, organs were removed, and then fluorescence images were confirmed using FOBI.

The test system of data set [6] is HepG2 cells. The data set can be described thus: Wound healing assay. The class given is cell-based. The following applies: HepG2, 500 μg/mL GL or GL equivalent, 24-hour culture. As to the method:
HepG2 cells were seeded in a 6-well plate at 3×10^5 cells/well and cultured until 100% confluence. When the well was filled with cells, a wound was made by drawing a line in the center of the well using a 200 μL micropipette tip. The cells were washed with PBS, and treated with each of 500 μg/mL of GL, 500 μg/mL of bPEG-GL, which is a GL equivalent concentration, and a bPEG solution at the same amount of bPEG that dissolved in 500 μg/mL of bPEG-GL. After 24-hour culture, the width of the wound was confirmed. […] The cell migration rate was calculated according to Equation 1.
Rate of cell migration(RM)=(Wi−Wf)/t [Equation 1] • (Wi=initial wound width, Wf=final wound width, t=duration of migration)

Regarding `CC1(C)[C@@H](O[C@H]2O[C@H](C(=O)O)[C@@H](O)[C@H](O)[C@H]2O[C@@H]2O[C@H](C(=O)O)[C@@H](O)[C@H](O)[C@H]2O)CC[C@]2(C)[C@H]3C(=O)C=C4[C@@H]5C[C@@](C)(C(=O)O)CC[C@]5(C)CC[C@@]4(C)[C@]3(C)CC[C@@H]12` [GL, Glycyrrhizin], the “cell cycle phase compared to control” value with HepG2 cells [1] (HepG2, 250 and 500 μg/mL (GL equivalent)) is given as “cell cycles remained in the G0/G1 phase compared to the control”. For the same compound, the “concentration dependence of cell cycle arrest” value in the data set on HepG2 cells [1] (HepG2, 500 vs 250 μg/mL) was “higher cell cycle arrest effects at 500 μg/mL, compared to that at 250 μg/mL”. Also, the “size by dynamic light scattering particle size analyzer” value in data set [2] is listed as 50 nm. Further, in data set [2] (30 min), the “DLS size, first listed population” value is recorded as 159.7 nm; the “DLS size, second listed population” value worked out at 10.38 nm; the “proportion of first listed population” value is reported as 75.50%; the “proportion of second listed population” value is listed as 24.15%. Moreover, in data set [2] (1 h), the “DLS size, first listed population” value is listed as 54.5 nm; the “DLS size, second listed population” value is 295.03 nm; the “proportion of first listed population” value is recorded as 47.83%; the “proportion of second listed population” value was determined as 31.06%. Also, the “size of newly observed particles” value in data set [2] (DW with 10% FBS, after 1 hour) is given as “approximately 300 nm”. In the data set with HepG2 cells [3] (HepG2, GL equivalent concentration of 500 μg/mL), the “proportion of apoptotic cells” value was found to be 9.63%. Further, the “proportion of apoptotic cells” value in the data set on HepG2 cells [3] (HepG2, GL equivalent concentration of 1 mg/mL) came to 10.86%. Also, the half-life in data set [4] is roughly 4 min. Also, the “toxicity to blood cells (hemolysis)” value in the data set on red blood cells was “did not exhibit toxicity to blood cells”. The organ fluorescence result in data set [5] (10 minutes after injection) is “fluorescence was visible in the liver and kidney”. Moreover, in data set [5] (later time points up to 24 hr), the organ fluorescence entry is reported as “no fluorescence was observed in the corresponding organs at later time points”. The “width of wound / cell migration” value in the data set on HepG2 cells [6] is on record as “inhibitory effect on cell migration”.

The term half-life denotes how long it takes for the measured level to halve.
